Measurements published in patent publication US11542488B2, “Sortase synthesized chimeric antigen receptors” (Novartis AG, priority 2014, dated 2023).
Read-outs that look alike come from different tables or passages of the source.

Experiments:
NALM6-luc tumors = test: Tumor growth of NALM6-luc cells in NSG mice with daily RAD001 dosing; type: in vivo; conditions: daily oral dosing of RAD001 alone, 0.3, 1, 3 and 10 mg/kg
Description: NALM6-luc cells: The NALM6 human acute lymphoblastic leukemia (ALL) cell line was developed from the peripheral blood of a patient with relapsed ALL. The cells were then tagged with firefly luciferase. These suspension cells grow in RPMI supplemented with 10% heat inactivated fetal bovine serum.
Mice: 6 week old NSG (NOD.Cg-PrkdcscidIl2rgtm1Wjl/SzJ) mice were received from the Jackson Laboratory (stock number 005557).
(§1) Tumor implantation: NALM6-luc cells were grown and expanded in vitro in RPMI supplemented with 10% heat inactivated fetal bovine serum. The cells were then transferred to a 15 ml conical tube and washed twice with cold sterile PBS. NALM6-luc cells were then counted and resuspended at a concentration of 10×10^6 cells per milliliter of PBS. The cells were placed on ice and immediately (within one hour) implanted in the mice. NALM6-luc cells were injected intravenously via the tail vein in a 100 μl volume, for a total of 1×10^6 cells per mouse.
(§2) RAD001 dosing: A concentrated micro-emulsion of 50 mg equal to 1 mg RAD001 was formulated and then resuspended in D5W (dextrose 5% in water) at the time of dosing. Mice were orally dosed daily (via oral gavage) with 200 μl of the desired doses of RAD001.

[1] = Pharmacokinetics of RAD001 in the blood of NSG mice with NALM6 tumors; type: in vivo; conditions: for concentration at 24 h: mouse, blood
Description: as §2
PK analysis: Mice were dosed daily with RAD001 starting 7 days post tumor implantation. Dosing groups were as follows: 0.3 mg/kg, 1 mg/kg, 3 mg/kg, and 10 mg/kg. Mice were bled on days 0 and 14 following the first and last dose of RAD001, at the following time points for PK analysis: 15 minutes, 30 minutes, 1 hour, 2 hours, 4 hours, 8 hours, 12 hours, and 24 hours.

huCAR19 CAR T cells = test: In vivo proliferation of humanized CD19 CAR T cells with and without RAD001 dosing; set-up: species or system NSG mice
Description: as §1
CAR T cell dosing: Mice were administered 5×10^6 CAR T cells 7 days after tumor implantation. Cells were partially thawed in a 37 degree Celsius water bath and then completely thawed by the addition of 1 ml of cold sterile PBS to the tube containing the cells. The thawed cells were transferred to a 15 ml falcon tube and adjusted to a final volume of 10 mls with PBS. The cells were washed twice at 1000 rpm for 10 minutes each time and then counted on a hemocytometer. T cells were then resuspended at a concentration of 50×10^6 CAR T cells per ml of cold PBS and kept on ice until the mice were dosed. The mice were injected intravenously via the tail vein with 100 μl of the CAR T cells for a dose of 5×10^6 CAR T cells per mouse. Eight mice per group were treated either with 100 μl of PBS alone (PBS), or humanized CD19 CAR T cells.
as §2
Based on these doses, huCAR19 CAR T cells were dosed with and without RAD001 to determine the proliferative ability of these cells. The highest dose used was 3 mg/kg based on the levels of RAD001 in the blood 24 hours after dosing. As the concentration of RAD001 was above 10 nM 24 hours after the final dose of RAD001, several lower doses of RAD001 were used in the in vivo study with CAR T cells. The CAR T cells were dosed IV one day prior to the start of the daily oral RAD001 dosing. Mice were monitored via FACS for T cell expansion.

huCART19 cells = test: 4 day co-culture proliferation assay of CARTs with Nalm-6 cells in the presence of RAD001; type: cell-based, human
From the text: A humanized, anti-human CD19 CAR (huCART19) lentiviral transfer vector was used to produce the genomic material packaged into VSVg pseudotyped lentiviral particles. The amino acid and nucleotide sequence of the humanized anti-human CD19 CAR (huCART19) is CAR 1, ID 104875, described in PCT publication, WO2014/153270, filed Mar. 15, 2014, and is designated SEQ ID NOs. 85 and 31 therein.
Lentiviral transfer vector DNA is mixed with the three packaging components VSVg env, gag/pol and rev in combination with lipofectamine reagent to transfect Lenti-X 293T cells. Medium is changed after 24 h and 30 h thereafter, the virus-containing media is collected, filtered and stored at −80° C. CARTs are generated by transduction of fresh or frozen naïve T cells obtained by negative magnetic selection of healthy donor blood or leukopak. T cells are activated by incubation with anti-CD3/anti-CD28 beads for 24 h, after which viral supernatant or concentrated virus (MOI=2 or 10, respectively) is added to the cultures. The modified T cells are allowed to expand for about 10 days. The percentage of cells transduced (expressing the CARs on the cell surface) and the level of CAR expression (relative fluorescence intensity, Geo Mean) are determined by flow cytometric analysis between days 7 and 9. The combination of slowing growth rate and T cell size approaching ˜350 fL determines the state for T cells to be cryopreserved for later analysis.
To evaluate the functionality of CARTs, the T cells are thawed and counted, and viability is assessed by Cellometer. The number of CAR-positive cells in each culture is normalized using non-transduced T cells (UTD). The impact of RAD001 on CARTs was tested in titrations with RAD001, starting at 50 nM. The target cell line used in all co-culture experiments is Nalm-6, a human pre-B cell acute lymphoblastic leukemia (ALL) cell line expressing CD19 and transduced to express luciferase.
For measuring the proliferation of CARTs, T cells are cultured with target cells at a ratio of 1:1. The assay is run for 4 days, when cells are stained for CD3, CD4, CD8 and CAR expression. The number of T cells is assessed by flow cytometry using counting beads as reference.

Compound: CO[C@H]1C[C@@H]2CC[C@@H](C)[C@@](O)(O2)C(=O)C(=O)N2CCCC[C@H]2C(=O)O[C@H]([C@H](C)C[C@@H]2CC[C@@H](OCCO)[C@H](OC)C2)CC(=O)[C@H](C)/C=C(\C)[C@@H](O)[C@@H](OC)C(=O)[C@H](C)C[C@H](C)/C=C/C=C/C=C/1C [RAD001, (1R,9S,12S,15R,16E,18R,19R,21R,23S,24E,26E,28E,30S,32S,35R)-1,18-dihydroxy-12-{(1R)-2-[(1S,3R,4R)-4-(2-hydroxyethoxy)-3-methoxycyclohexyl]-1-methylethyl}-19,30-dimethoxy-15,17,21,23,29,35-hexamethyl-11,36-dioxa-4-aza-tricyclo[30.3.1.04,9]hexatriaconta-16,24,26,28-tetraene-2,3,10,14,20-pentaone]
- growth of NALM6-luc tumors (NALM6-luc tumors): did not have an impact on the growth of NALM6-luc tumors
- concentration at 24 h ([1]; NSG, lowest dose tested (0.3 mg/kg), oral, read-out: RAD001 concentration in the blood 24 hours after dosing): > 10 nM
- stability in the blood of tumor bearing mice ([1]; daily oral dosing, NSG mice): fairly stable
- RAD001 concentration in the blood 24 hours after dosing ([1]; day 14, lowest dose tested (0.3 mg/kg), oral): above 10 nm
- concentration at 24 h ([1]; 0.3 mg/kg, NSG mice, daily oral dosing, read-out: concentration of RAD001 24 hours after the final dose): > 10 nM
- CAR T cell proliferation in vivo versus normal level of huCAR19 proliferation (huCAR19 CAR T cells; 0.003 mg/kg RAD001 daily): enhancement in CAR T cell proliferation
- enhanced proliferation, CD4+ CAR T cells compared with CD8+ CAR T cells (huCAR19 CAR T cells; lowest doses of RAD001): more evident and prolonged
- proliferation of CD8+ CAR T cells in vivo (huCAR19 CAR T cells; lowest doses of RAD001): enhanced proliferation can be seen at early time points
- proliferation of the CAR T cells in vivo (huCAR19 CAR T cells; lowest doses of RAD001, daily oral): enhanced proliferation
- proliferation of huCART19 cells versus no RAD001 (huCART19 cells; 0.0032 nM RAD001): higher than observed without the addition of RAD001
- proliferation of huCART19 cells versus no RAD001 (huCART19 cells; 0.016 nM RAD001): higher than observed without the addition of RAD001
- RAD001 concentration at which huCART19 cells expanded (huCART19 cells; 4 day co-culture with Nalm-6, ratio 1:1): less than 0.016 nM
- proliferation of CAR-expressing, transduced T cells (huCART19 cells; low doses of RAD001, cell culture system, FIG. 12): enhanced
